Assay: Measurement of pKa of ethanolamine (potentiometric titration)
Conditions: aqueous solution of the ethanolamine

Which pKa does the source give for COCCOCCN(CCOCCOC)CCOCCOC [Tris[2-(2-methoxyethoxy)ethyl]amine, tris[2-(2-methoxyethoxy)ethyl]amine] here?
The pKa was 7.48.

— patent US11345825B2, “Aqueous pigment dispersion” (KAO CORPORATION, priority 2016, dated 2022)
